Test results reported in article PMC8551334 (Scientific Reports, 2021).
In brackets after ≈: the same amount, converted by molar mass. Where two headings read alike, the source gives them in different places.

How the values were obtained:
DENV-3 [1] = assay: Virucidal assay against extracellular DENV-3, qRT-PCR (viral RNA copy number); format: cell-based, dengue virus; settings: for IC50: Dengue virus, DENV3, extracellular DENV-3, reduction in viral RNA copy number, mean ± SEM
Description: (§1) Viral RNA extraction was performed using QIAamp^R Viral RNA extraction kit (QIAGEN, Germany), and viral RNA copy number was quantified using the genesig Real-Time qRT-PCR Standard Kit (PrimerDesign, UK). The reactions were in a final volume of 20 μL containing 10 μL of the master mix, 1 μL of probe/primer mix, 4 μL of nuclease-free water, and 5 μL of viral RNA template. Quantitative PCR was performed using a CFX96 Touch™ Real-Time PCR Detection System (Bio-Rad, USA.) with the following conditions: 10 min at 55 °C (reverse transcription), 2 min at 95 °C (enzyme activation) followed by 50 cycles of amplification (10 s at 95 °C, 60 s at 60 °C). The viral RNA copy number was determined based on the threshold cycles (Ct) and standard curve generated from known RNA standards.
(§2) After 1 h, the flavonoid-treated virus was used to infect Vero cells at 37 °C for 1 h. Then, the unabsorbed virus was removed, and the cells were washed and overlaid with 1 mL of overlay medium. After 4 days, the reduction in foci was determined by immunostaining. Another parallel experiment was carried out by replacing the overlay medium with DMEM supplemented with 2% FBS to determine the reduction in viral RNA copy number by qRT-PCR as previously described.
(§3) The maximum non-toxic dose (MNTD80) and 50% of inhibition (IC50) of flavonoids in Vero cells were calculated using Prism software (GraphPadPrism8, CA, USA) by applying four-parameter logistic non-linear regression model. The selectivity index (SI) was calculated as SI = CC50/IC50. Data presented are the mean ± SEM of three independent experiments. The student t-test was used to analyze the antiviral activity of flavonoids compared to a positive control (*p < 0.05, **p < 0.01, ***p < 0.001, ****p < 0.0001).

DENV-3 [2] = assay: FACS neutralization test (FNT); format: cell-based, dengue virus; settings: for FACS gating percentage (FITC-positive population): 10,000 events
Description: Vero cells were seeded in 24 well plates at a density of 1 × 10^5 cells/well and incubated overnight. The antiviral assays were done using MOI 0.5 DENV-3, and FNT was carried out 48 h post-infection. Viral infected cells were harvested by trypsinization and centrifugation (1500 rpm, 5 min). Harvested cells were washed with PBS and fixed with 250 µL of BD Cytofix/Cytoperm™ Fixation/Permeabilization solution kit with BD GolgiStop™ (BD Biosciences, USA) solution and incubated on ice for 20 min in the dark. The cells were centrifuged at 3000 rpm for 2 min and washed two times with stain buffer (PBS + 5%FBS). Staining was performed with 50 µL of anti-dengue virus type III primary antibody, clone 5D4-11 (MAB8703 Sigma-Aldrich, USA), diluted in Cytoperm/Cytowash solution at a ratio of 1:1000 and incubated for 1 h on ice. After that, the cells were washed and stained with 50 µL of FITC-conjugated secondary antibody (Sigma-Aldrich, USA) diluted in Cytoperm/Cytowash solution at a ratio of 1:1000 and incubated for 1 h on ice in the dark. The samples were analyzed in a BD FACSCalibur flow cytometer (BD Biosciences, USA) using BD Cellquest pro software. For each sample, 10,000 events were collected, and the percent reduction in the number of infected cells was calculated using the following equation. Percentageofinhibition%=(C-T)/C×100% where, C is the percentage of viral infected cells among the 10,000 events without flavonoid treatment (control). T is the percentage of infected cells among the 10,000 events with the respective flavonoid treatment.
Percent reduction in virus-infected cells was represented as the mean ± standard error of the mean (SEM) from triplicate assays determined from three independent experiments.

DENV-3 [3] = assay: Virucidal assay against extracellular DENV-3, FFURA (foci reduction); format: cell-based, dengue virus; settings: for IC50: extracellular DENV-3, reduction in virus foci, mean ± SEM; for Viral foci reduction at highest concentration, virucidal assay: silymarin 200 µg/mL, baicalein 100 µg/mL, baicalin 20 µg/mL, DENV-3
Description: (§4) The antiviral activity of flavonoids was determined by measuring the reduction in the number of DENV infectious foci after treatment. The antiviral assays were performed based on Zandi et al.[14] with minor modifications. Briefly, a confluent monolayer of Vero cells seeded in 24-well plates was treated with flavonoids before or after or with the virus infection and incubated for 4 days. The virus foci were visualized using immunostaining. The flavonoids' antiviral activities were determined by calculating the percentage of foci reduction (%RF) according to the following equation: Percentageofinhibition%=(C-T)/C×100% where, C is the number of foci without the flavonoid treatment (control). T is the number of foci with the respective flavonoid treatment.
as §2, §3

Vero cells [4] = tested on: Vero cells; design: method as in Moghaddam et al. 15; settings: ref Moghaddam et al. 15; cited from earlier work
DENV-3 [5] = assay: Entry assay; format: cell-based, dengue virus
Description: Pre-chilled DENV-3 (80 FFU/well) in the absence of flavonoids were added to the pre-chilled Vero cells and incubated at 4 °C to allow virus attachment. […] After that, the medium containing flavonoids was removed, and Vero cells were washed and treated with acidic PBS (pH 3) for 60 s to inactivate the extracellular virus. After 60 s, the acidic PBS was neutralized by alkaline PBS (pH 11) in each well. Next, cells were then washed with serum-free media and overlaid with 1 mL of overlay medium. After 4 days, the reduction in foci was determined by immunostaining.

DENV-3 progeny [6] = assay: Post-infection assay, intracellular DENV-3 progeny, FFURA; format: cell-based, dengue virus; settings: for IC50: 48 h treatment, mean ± SEM, read-out: IC50 against DENV-3 progeny, FFURA
Description: as §4
(§5) To determine the activity of flavonoids in inhibiting the intracellular viral progeny, Vero cells (1 × 10^5 cells/well) in a 24-wells plate were infected with DENV-3 (MOI = 0.1) for 1 h at 37 °C. […] After 48 h, the viral supernatant was collected, and twofold dilution was used to reinfect fresh monolayer of Vero cells, and the reduction in viral titer was quantified using FFURA and qRT-PCR.
as §3

DENV-3 [7] = assay: Time course assay for virucidal activity; format: cell-based, dengue virus; settings: for Time taken to achieve 50% viral infectivity inhibition: co-incubation with DENV-3
Description: Vero cells (1 × 10^5 cells/well) were grown overnight in a 24-well plate. […] Cells were infected with the flavonoid-treated virus and incubated at 37 °C for 1 h. Then, the unabsorbed virus was removed, and the cells were washed and overlaid with 1 mL of overlay medium. After 4 days, the reduction in foci was determined by immunostaining.

DENV-3 [8] = assay: Attachment assay; format: cell-based, dengue virus
Description: Vero cells (1 × 10^5 cells/well) were grown overnight in a 24-well plate. […] After 1 h, the flavonoid-treated virus is incubated on ice for 15 min. Next, pre-chilled Vero cells were infected with the pre-chilled flavonoid-treated virus at 4 °C for 1 h to allow virus attachment. Then, the unabsorbed virus was removed, and the cells were washed and overlaid with 1 mL of overlay medium. After 4 days, the reduction in foci was determined by immunostaining.

DENV-3 progeny [9] = assay: Post-infection assay, intracellular DENV-3 progeny, qRT-PCR; format: cell-based, dengue virus; settings: for IC50: Dengue virus, DENV3, 48 h treatment, mean ± SEM, read-out: IC50 against DENV-3 progeny, qRT-PCR
Description: as §1, §5, §3

Vero cells [10] = assay: Cytotoxicity of flavonoids in Vero cells by MTS assay; format: cell-based, African green monkey; settings: 48 h; for Concentrations up to which no significant cytotoxic effects were seen: African green monkey; for MNTD80 (maximum non-toxic dose, 80% of cells viable): Vero cells, MTS assay, mean ± SEM
Description: (§6) The cytotoxic potential of flavonoids in Vero cells was assessed by MTS assay. Briefly, confluent Vero cells in a 96 well plate were treated with different concentrations of flavonoids in triplicates with DMEM containing 2% FBS. After 2 days, 20 μL of 3-(4,5-Dimethylthiazol-2-yl)-5-(3-carboxymethoxyphenyl)-2-(4-sulfophenyl)-2H-tetrazolium (MTS) reagent (Promega, France) was added to each well. After 1 h of incubation at 37 °C, the cells were agitated, and the absorbance was measured at 490 nm in a microplate reader (Tecan, Infinite M2000, Switzerland). Maximum non-toxic dose (MNTD80) and 50% cytotoxic concentration (CC50) were calculated by non-linear regression using prism software (GraphPadPrism8, USA).
as §3

[11] = as above; format: cell-based, African green monkey; settings: African green monkey
Description: as §6, §3

EVA-71 = settings: cited from earlier work
DENV-1 = assay: Virucidal assay against DENV-1, FFURA; format: cell-based; settings: Dengue virus, DENV1; read-out: Viral infectivity inhibition, DENV-1
Description: as §4, §2

DENV-2 = assay: Virucidal assay against DENV-2, FFURA; format: cell-based; settings: Dengue virus, DENV2; read-out: Viral infectivity inhibition, DENV-2
Description: as §4, §2

DENV-4 = assay: Virucidal assay against DENV-4, FFURA; format: cell-based; settings: Dengue virus, DENV4; read-out: Viral infectivity inhibition, DENV-4
Description: as §4, §2

[12] = silymarin 200, baicalein 100, baicalin 20 µg/mL
[13] = Dengue virus, DENV3, post-infection assay
[14] = Dengue virus, DENV3, read-out: Maximum inhibition of intracellular viral progeny infectivity

O=C(O)[C@H]1O[C@@H](Oc2cc3oc(-c4ccccc4)cc(=O)c3c(O)c2O)[C@H](O)[C@@H](O)[C@@H]1O [Baicalin]
IC50 (DENV-3 [1]): 17.4 ± 6.51 µg/mL (≈ 39 µM)
SI (CC50/IC50), virucidal assay, qRT-PCR (DENV-3 [1]; extracellular DENV-3): 3.14
FACS gating percentage (FITC-positive population) (DENV-3 [2]; [12]): 42.35%
inhibition at 20 µg/mL (DENV-3 [2]; Dengue virus, DENV3, 48 h, read-out: Percentage of inhibition of DENV-3 infected cell population (FNT)): 31.9%
IC50 (DENV-3 [3]; Dengue virus, DENV3): 7.38 ± 1.1 µg/mL (≈ 16.5 µM)
SI (CC50/IC50), virucidal assay, FFURA (DENV-3 [3]; extracellular DENV-3): 7.40
Viral foci reduction at highest concentration, virucidal assay (DENV-3 [3]): 76%
CC50 (Vero cells [4]): 290.9 µg/mL (≈ 652 µM)
inhibition at 20 µg/mL (DENV-3 [5]; Dengue virus, DENV3, Vero, read-out: Inhibition of viral entry): 49.8 ± 8.78%
IC50 (DENV-3 progeny [6]; [13]): 5.31 ± 1.96 µg/mL (≈ 11.9 µM)
inhibition at 20 µg/mL (DENV-3 progeny [6]; [14]): 81%
SI (CC50/IC50) against DENV-3 progeny, FFURA (DENV-3 progeny [6]; post-infection assay): 10.29
inhibition at 20 µg/mL (DENV-3 [7]; Dengue virus, DENV3, 1 h, read-out: Viral infectivity inhibition at 60 min co-incubation (maximum)): 66.9%
Time taken to achieve 50% viral infectivity inhibition (DENV-3 [7]; [12]): 25.8 min
inhibition at 20 µg/mL (DENV-3 [8]; Dengue virus, DENV3, Vero, read-out: Inhibition of viral attachment): 48.5 ± 9.1%
SI (CC50/IC50) against DENV-3 progeny, qRT-PCR (DENV-3 progeny [9]): 12.06
IC50 (DENV-3 progeny [9]): 4.53 ± 0.62 µg/mL (≈ 10.1 µM)
Concentrations up to which no significant cytotoxic effects were seen (Vero cells [10]): ≤ 20 µg/mL
MNTD80 (maximum non-toxic dose, 80% of cells viable) (Vero cells [10]): 19.15 ± 0.07 µg/mL
CC50 at 48 h [11]: 54.6 ± 0.76 µg/mL (≈ 122 µM)

O=c1cc(-c2ccccc2)oc2cc(O)c(O)c(O)c12 [Baicalein]
Virucidal effect against EVA-71 (EVA-71; silymarin at < 1 min contact, baicalein maximum at 60 min): 60%
Period of contact (co-incubation time) needed for the virucidal effect (EVA-71; silymarin for 65% effect, baicalein for maximum of 60% effect): 60 min
IC50 (DENV-3 [1]): 17.2 ± 2.48 µg/mL (≈ 63.8 µM)
FACS gating percentage (FITC-positive population) (DENV-3 [2]; [12]): 0.44%
Percentage of inhibition of DENV-3 infected cell population (FNT) (DENV-3 [2]; MOI 0.5, 48 h post-infection, silymarin 200, baicalein 100, baicalin 20 µg/mL): 97.92%
IC50 (DENV-3 [3]; Dengue virus, DENV3): 12.7 ± 3.49 µg/mL (≈ 47 µM)
inhibition at 100 µg/mL (DENV-3 [3]; Dengue virus, DENV3, read-out: Viral infectivity inhibition, DENV-3): 99.68 ± 0.1%
Viral foci reduction at highest concentration, virucidal assay (DENV-3 [3]): 99.78%
inhibition at 100 µg/mL (DENV-1): 96.7 ± 2.1%
Inhibition of viral entry (DENV-3 [5]; DENV-3 into Vero cells, silymarin 200, baicalein 100, baicalin 20 µg/mL): 57.91 ± 11.65%
IC50 (DENV-3 progeny [6]; [13]): 34.7 ± 6.71 µg/mL (≈ 128 µM)
inhibition at 100 µg/mL (DENV-3 progeny [6]; [14]): 79.7%
inhibition at 100 µg/mL (DENV-2): 97.2 ± 1.41%
inhibition at 100 µg/mL (DENV-4): 80.49 ± 0.26%
Viral infectivity inhibition achieved at 0 min (DENV-3 [7]; 0 min co-incubation, silymarin 200, baicalein 100, baicalin 20 µg/mL): 62.45 ± 3.67%
Viral infectivity inhibition at 60 min co-incubation (maximum) (DENV-3 [7]; 60 min co-incubation, silymarin 200, baicalein 100, baicalin 20 µg/mL): 97.24%
Time taken to achieve 50% viral infectivity inhibition (DENV-3 [7]; [12]): 0 min
Co-incubation time to reach up to 75% viral infectivity inhibition (DENV-3 [7]; silymarin 200, baicalein 100 µg/mL): 15 min
Inhibition of viral attachment (DENV-3 [8]; DENV-3 to Vero cells, silymarin 200, baicalein 100, baicalin 20 µg/mL): 95.59 ± 1.44%
IC50 (DENV-3 progeny [9]): 29.7 ± 12.8 µg/mL (≈ 110 µM)
Concentrations up to which no significant cytotoxic effects were seen (Vero cells [10]): ≤ 100 µg/mL
MNTD80 (maximum non-toxic dose, 80% of cells viable) (Vero cells [10]): 122.95 ± 2.37 µg/mL
CC50 at 48 h ([11]; Vero cells, MTS assay, 48 h, mean ± SEM, read-out: CC50 (half maximum cytotoxic concentration)): 271 ± 6.57 µg/mL (≈ 1000 µM)
